From patent US4435591A, “Compound with analgesic, antiinflammatory and antipyretic activity, and pharmaceutical compositions therefrom” (Ausonia Farmaceutici s.r.l., priority 1982, dated 1984)

Key:
[1] = tested on: subplantar edema caused by carrageenan in rats; assay: Edema caused by carrageenan in rats (Winter et al); type: in vivo; conditions: oral, AFP 802 187 mg/Kg, ibuprofen 100 mg/Kg
Protocol: The anti-inflammatory activity has been investigated by a series of tests using edema caused by carrageenan and kaolin pleuritis caused by carrageenan and arthritis caused by an adjuvant.
The plyethysmographic observations of the edema have been carried out every hour for a period of 7 hours after the induction of the edema.

[2] = tested on: Pleuritis caused by carrageenan in rats; assay: Pleuritis caused by carrageenan in rats (Vinegar et al); type: in vivo; conditions: for Number of leucocytes × 1,000 / Number of leucocytes, % inhibition with respect to the controls: 100 mg/Kg oral
[3] = tested on: Arthritis caused by the adjuvant of Freund in rats; assay: Arthritis caused by the adjuvant in rats (Winter and Nuss); type: in vivo; conditions: 100 mg/Kg/die oral
Text: For the evaluation for the efficiency of the substance the following parameters have been considered: diameter of articulations, volume of the hind paws, hematological and hematochemical examination, weight of the suprarenal glands and thymus.

[4] = tested on: Writhing caused by phenylquinone in mice; assay: Writhing caused by phenylquinone in mice (Siegmung et al); type: in vivo
Text: The analgesic activity of AFP 802 has been studied by means of the writhing test with phenylquinone in mice and by means of the test of Randall and Selitto in rats.

[5] = tested on: Test of Randall and Selitto, in rats; assay: Test of Randall and Selitto in rats; type: in vivo; conditions: 100 mg/Kg oral
Protocol: The analgesic activity of AFP 802 has been studied by means of the writhing test with phenylquinone in mice and by means of the test of Randall and Selitto in rats. Test of Randall and Selitto in rats. This test was carried out according to the method of L. Randall and J. Selitto reported in Arch. Int. Pharmacodyn., 1957 III, 409. […] The variations of pressure tolerated without variation in pain have been determined each hour, for 5 consecutive hours and the results are reported in Table 10.

[6] = tested on: Hyperthermia caused by yeast; assay: Antipyretic activity, hyperthermia caused by yeast in rats (Boissier and Simon); type: in vivo
Text: The experiment has been carried out in rats in which the body temperature has been increased by means of yeast by the method according to J. R. Boissier and P. Simon (Therapie, 1962, 17, 1225). […] It is, however, necessary to keep in mind the difference in molecular weight between the two substances under examination.

[7] = tested on: Edema caused by kaolin in rats; assay: Edema caused by kaolin in rats (Coulon et al); conditions: oral every 24 hours, 5 consecutive days, dose AFP 802 115, ibuprofen 60

CC(C)Cc1ccc(C(C)C(=O)O)cc1 (centres unmarked) [Ibuprofen, ibuprofen, reference compound]
% inhibition vs control ([1]; area): 65.0% | Area Absolute Value [1]: 102.8 | Number of leucocytes × 1,000 ([2]; 5 hours): 4,499 × 1,000 | Number of leucocytes, % inhibition with respect to the controls ([2]; 5 hours): 73.60% | effect in pleuritis (in words) ([2]; 24 hours after the administration): practically inactive | Number of leucocytes × 1,000 ([2]; 24 hours): 18,470 × 1,000 | Number of leucocytes, % inhibition with respect to the controls ([2]; 24 hours): 0.92% | ALBUMIN (%) [3]: 68.0 ± 2.0% | GLOBULIN (%) α1 [3]: 8.8 ± 1.07% | GLOBULIN (%) α2 [3]: 5.5 ± 0.34% | GLOBULIN (%) β1 [3]: 13.9 ± 0.45% | GLOBULIN (%) β2 [3]: 5.9 ± 0.43% | GLOBULIN (%) γ [3]: 1.9 ± 0.13% | Hematocrit [3]: 45.4 ± 1.04 | Leucocytes [3]: 7,946 ± 380.5 × mm^3 | Red Cells [3]: 5,265.300 ± 1.003 × mm^3 | VES [3]: 1.7 ± 0.9 | Σ Diameter D + S, Area ([3]; both paws, area under the curve of the increases): 2,616.2 | Σ Diameter D + S, % inhibition ([3]; both paws): 70.92% | Suprarenal ([3]; weight): 65.6 ± 3.4 mg | Thymus ([3]; weight): 375.0 ± 24.3 mg | % inhibition with respect to the control ([4]; 100 mg/Kg oral): 78.6% | No. of Contorsions ([4]; 100 mg/Kg oral): 4.5 | % inhibition with respect to the control ([4]; 200 mg/Kg oral): 86.7% | No. of Contorsions ([4]; 200 mg/Kg oral): 2.8 | % INHIBITION WITH RESPECT TO THE CONTROL, I ([5]; area, inflamed paw): 45.41% | % INHIBITION WITH RESPECT TO THE CONTROL, NI ([5]; area, not inflamed paw): 65.35% | AREA ABSOLUTE VALUE, I ([5]; inflamed paw, area of the increase of the pressure tolerated): -58.6 ± 25.25 | AREA ABSOLUTE VALUE, NI ([5]; not inflamed paw, area of the increase of the pressure tolerated): -39.95 ± 33.48 | % inhibition with respect to control ([6]; 100 mg/Kg oral): 121.24% | Rectal temperature ([6]; 1 hour after treatment, 100 mg/Kg oral): 37.71 °C | Rectal temperature ([6]; 2 hours after treatment, 100 mg/Kg oral): 37.43 °C | Rectal temperature ([6]; 3 hours after treatment, 100 mg/Kg oral): 37.36 °C | Rectal temperature ([6]; 4 hours after treatment, 100 mg/Kg oral): 36.87 °C | Rectal temperature ([6]; 5 hours after treatment, 100 mg/Kg oral): 37.12 °C | Rectal temperature ([6]; Basal, 100 mg/Kg oral group): 38.34 °C | % inhibition with respect to the controls ([7]; area): 38.24% | Area (area under the curve of the increase of the diameter of the articulations) [7]: 10799.5 mm^2
